PubChem BioAssay (NCI)
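Interpolation was linear, between the two tested concentrations surrounding the appropriate level; five concentrations were tested over 48 hours in 96-well plates. Abbreviation: GI50, concentration required for 50% inhibition of growth. The concentration for full growth arrest is given as TGI.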

Tests used:
Assay in all cases: DTP human tumour cell line panel, 48 h
DU-145 prostate = tested on: DU-145 prostate
HCT-15 colon = tested on: HCT-15 colon
HL-60(TB) leukemia = tested on: HL-60(TB) leukemia
HOP-62 NSCLC = tested on: HOP-62 NSCLC
HT29 colon = tested on: HT29 colon
MCF7 breast = tested on: MCF7 breast
NCI-H522 lung = tested on: NCI-H522 lung
SNB-19 CNS = tested on: SNB-19 CNS
OVCAR-8 ovarian = tested on: OVCAR-8 ovarian
RXF 393 renal = tested on: RXF 393 renal

| SMILES | TGI (DU-145 prostate) | TGI (HCT-15 colon) | TGI (HL-60(TB) leukemia) | TGI (HOP-62 NSCLC) | TGI (HT29 colon) | TGI (MCF7 breast) | TGI (NCI-H522 lung) | TGI (SNB-19 CNS) | TGI (OVCAR-8 ovarian) | TGI (RXF 393 renal) | GI50 (RXF 393 renal) | GI50 (DU-145 prostate) | GI50 (HCT-15 colon) | GI50 (HOP-62 NSCLC) | GI50 (HT29 colon) | GI50 (MCF7 breast) | GI50 (OVCAR-8 ovarian) | GI50 (SNB-19 CNS) | GI50 (HL-60(TB) leukemia) | GI50 (NCI-H522 lung) |
| --- | --- | --- | --- | --- | --- | --- | --- | --- | --- | --- | --- | --- | --- | --- | --- | --- | --- | --- | --- | --- |
| CC(C)(C)NCc1cc(C(C)(C)C)cc(-c2ccc(Cl)cc2)c1O | 24.7 µM | 25.7 µM | 23.4 µM | 20.1 µM | 53.2 µM | 32.7 µM | 24.8 µM | 30.5 µM | – | – | – | – | – | – | – | – | – | – | – | – |
| CN1c2ccccc2N(C)C2C1N(C)c1ccccc1N2C (configuration not stated) | – | – | 7 µM | > 100 µM | > 100 µM | – | 26 µM | 80.2 µM | > 100 µM | 32.6 µM | – | – | – | – | – | – | – | – | – | – |
| COC1OC(CO)C(O)C(O)C1Br (configuration not stated) | – | > 100 µM | > 100 µM | > 100 µM | > 100 µM | – | > 100 µM | > 100 µM | > 100 µM | > 100 µM | – | – | – | – | – | – | – | – | – | – |
| CCOC(=O)C(CO)c1nc2c([nH]c1=O)c(=O)n(C)c(=O)n2C (configuration not stated) | > 100 µM | > 100 µM | > 100 µM | > 100 µM | > 100 µM | > 100 µM | > 100 µM | > 100 µM | > 100 µM | – | – | – | – | – | – | – | – | – | – | – |
| CO/C1=C\C(C)=C\C(C)C(O)C(C)C/C(C)=C/C=C/C(OC)C(C(C)C(O)C(C)C2(O)CC(O)C(C)C(C(C)C)O2)OC1=O (configuration not stated) | – | 11.2 µM | 0.0136 µM | 0.000847 µM | – | – | – | 24.9 µM | 10.4 µM | – | 11.1 µM | – | – | – | – | – | – | – | – | – |
| CCOC(=O)c1[nH]c(-c2ccc(Cl)cc2)cc1-c1cccnc1 | > 100 µM | > 100 µM | – | > 100 µM | > 100 µM | > 100 µM | – | > 100 µM | > 100 µM | 7.23 µM | 1.27 µM | 1.88 µM | 0.437 µM | 0.868 µM | 0.35 µM | 0.453 µM | 2.51 µM | 8.33 µM | – | – |
| COc1cc2noc(-c3ccccc3)c2cc1OC | – | > 100 µM | > 100 µM | > 100 µM | > 100 µM | – | > 100 µM | > 100 µM | > 100 µM | 73.8 µM | – | – | – | – | – | – | – | – | – | – |
| CN(C)CCCN1c2nc3ccccc3cc2Sc2cc3ccccc3nc21 | 3.01 µM | 2.87 µM | 2.79 µM | 2.58 µM | 5.1 µM | 2.18 µM | – | 3.13 µM | – | – | – | 1.65 µM | 1.33 µM | 1.29 µM | 1.18 µM | 0.859 µM | – | 1.69 µM | 1.34 µM | – |
| C(CCC[Te][Te]CCCCCCOC1CCCCO1)CCOC1CCCCO1 (configuration not stated) | – | 60.6 µM | 37.9 µM | 33.7 µM | 25.6 µM | – | – | 29 µM | 33.9 µM | – | – | – | – | – | – | – | – | – | – | – |
| ClC(Cl)c1nc(-c2cccnc2)n2nc(-c3ccccc3)cc2n1 | 3.14 µM | 3.44 µM | 7.19 µM | 6.44 µM | – | – | 6.03 µM | 5.89 µM | – | 2.45 µM | 1.13 µM | 0.554 µM | 0.472 µM | 1.69 µM | – | – | – | 1.88 µM | 2.18 µM | 1.67 µM |
| COc1cccc(C(=O)N2CCc3ccccc32)c1OC | – | 61.9 µM | 91.1 µM | > 100 µM | > 100 µM | – | > 100 µM | > 100 µM | > 100 µM | > 100 µM | – | – | – | – | – | – | – | – | – | – |
| CN(C)N1C(=O)c2ccccc2NC1c1ccccc1 (configuration not stated) | > 100 µM | > 100 µM | – | > 100 µM | > 100 µM | > 100 µM | > 100 µM | > 100 µM | > 100 µM | – | – | – | – | – | – | – | – | – | – | – |
| O=C(O)/C(=C/c1c(O)ccc2ccccc12)c1csc(-c2nc(/C(=C\c3c(O)ccc4ccccc34)C(=O)O)cs2)n1 | – | 39 µM | 26.4 µM | 22.2 µM | 52.2 µM | – | – | 43 µM | 49.4 µM | 14 µM | – | – | – | – | – | – | – | – | – | – |
| NNc1nc2ccccc2c(=O)n1NC(=O)C(=O)Nc1cccc(C(F)(F)F)c1 | – | > 100 µM | > 100 µM | > 100 µM | > 100 µM | > 100 µM | > 100 µM | > 100 µM | > 100 µM | > 100 µM | – | – | – | – | – | – | – | – | – | – |
| N=C(N=C(N)N)N1CCN(c2ccncc2)CC1 | > 1000 µM | > 1000 µM | > 1000 µM | > 1000 µM | > 1000 µM | > 1000 µM | > 1000 µM | > 1000 µM | > 1000 µM | – | – | > 1000 µM | > 1000 µM | > 1000 µM | > 1000 µM | > 1000 µM | 483 µM | > 1000 µM | > 1000 µM | > 1000 µM |
| CC(=O)OC1CC2C(C)(C)C(=O)C=C[C@]2(C)C2CCC3(C)C(c4ccoc4)C(=O)[C@H]4O[C@]43[C@]12C (some centres not stated) | – | 37.7 µM | 42.3 µM | 42.7 µM | – | – | 36.9 µM | 67.5 µM | 49.9 µM | 47.5 µM | – | – | – | – | – | – | – | – | – | – |
| NC(=O)N/N=C/C(/C=N/NC(N)=O)[N+](=O)[O-] | – | – | > 100 µM | > 100 µM | > 100 µM | – | > 100 µM | > 100 µM | – | > 100 µM | – | – | – | – | – | – | – | – | – | – |
| COCC(=O)CP(=O)(OC)OC | – | > 100 µM | > 100 µM | > 100 µM | > 100 µM | – | > 100 µM | > 100 µM | > 100 µM | > 100 µM | – | – | – | – | – | – | – | – | – | – |
| O=S(=O)(NCC1CCC(CNc2ccc(Cl)cc2)CC1)c1ccc(-c2ccccc2)cc1 (configuration not stated) | > 50 µM | > 50 µM | > 50 µM | > 50 µM | – | > 50 µM | > 50 µM | > 50 µM | > 50 µM | – | – | > 50 µM | > 50 µM | > 50 µM | – | > 50 µM | 41.4 µM | > 50 µM | > 50 µM | > 50 µM |
| CC1(C)OC(=O)C=C([O-])O1.CC1(C)OC(=O)C=C([O-])O1.O=S(=O)([O-])c1ccc([O-])c2ncccc12.O=S(=O)([O-])c1ccc([O-])c2ncccc12.[Ti+4] | – | > 100 µM | > 100 µM | 73.1 µM | > 100 µM | – | > 100 µM | > 100 µM | > 100 µM | > 100 µM | > 100 µM | – | 99.7 µM | 26.3 µM | > 100 µM | – | 83.4 µM | > 100 µM | 34.1 µM | 52.4 µM |
| NC1CCN(c2nc(Nc3cccc(C(F)(F)F)c3)c3c(=O)[nH]ccc3n2)CC1 | – | 2.26 µM | 2.41 µM | 3.54 µM | 4.89 µM | 3.02 µM | 3.57 µM | 3.59 µM | 4.91 µM | 2.67 µM | 1.31 µM | – | 0.584 µM | 1.76 µM | 1.17 µM | 1.35 µM | 2.06 µM | 2 µM | 0.603 µM | 1.76 µM |
